Measurements reported in patent publication US20200384072A1, “THERAPY OF IONIZING RADIATION-INDUCED DISORDERS” (SCK-CEN, priority 2019, published 2020).
Entries after “also recorded” stand apart in the source; their conditions may differ.

Tests used:
RBE4 cells [1] = test: γ-H2AX counts in electroporation-loaded bystander zone, RBE4 cells; type: cell-based, rat; settings: BH4-Bcl-2 20 μM, BAPTA 60 μM, SOD 100 μg/mL (3 μM)
Protocol: (§1) Cells were fixed for 25 min with 4% formaldehyde (VWR) and blocked for 30 min with blocking buffer (5% normal goat serum, 1% bovine serum albumin (BSA), 0.2% Triton X-100 in PBS D+). Overnight incubation with primary antibody (1/500 anti-γ-H2AX in dilution buffer, 1/10 blocking buffer in PBS D+) was followed by a 1 h incubation with 1/400 XX-biotin-goat-anti-mouse antibody in dilution buffer, followed by a 1 h incubation with 1/400 streptavidin-alexa488 in PBS D+. Nuclei were stained with 1 μg/mL DAPI in PBS D+ for 10 min and cells were kept in PBS D+ supplemented with NaN3 at 4° C. All steps except the overnight incubation which was carried out at 4° C., were carried out at room temperature and cell cultures were rinsed thoroughly with PBS D+ between all incubation steps. Imaging was performed with an automated BD Pathway 435 imaging system (10× objective, 10×10 montage resulting in an overall image size of 8.5×6.5 mm). We then quantified the number of γ-H2AX-foci positive nuclei in the directly irradiated and bystander areas and expressed the count as a percentage relative to the number of nuclei and subtracted the percentage of background γ-H2AX signal in non-irradiated paired control cultures for each experiment. For counting γ-H2AX foci, images were thresholded to remove background pixel noise below the foci level. Where applicable, results were normalized against vehicle (bar charts with a 100% vehicle bar without statistical variability or a horizontal line).
Cells were grown to near confluency on 4-well plates coated with collagen. Cell monolayer cultures were washed three times with HBSS-Hepes 25 mM (pH 7.2-7.4) and subsequently three times with a low conductivity electroporation buffer (4.02 mM KH2PO4, 10.8 mM K2HPO4, 1.0 mM MgCl2, 300 mM sorbitol, 2.0 mM Hepes, pH 7.4). They were placed 400 μm underneath a two-wire Pt-Ir electrode on the microscopic stage and electroporated in the presence of a tiny amount of electroporation solution (10 μl) containing 100 μg/mL SOD, 60 μM BAPTA or 20 μM BH4-Bcl2 combined with 100 μM 10 kDa DTR. […]

[2] = system: primary brain microvascular endothelial cells (pBMECs); test: γ-H2AX counts after local 3×3 mm X-ray irradiation (irradiated and bystander zones), pBMECs; type: cell-based, mouse; settings: 1 Gy, 3 h post-irradiation
Protocol: Cortices, from 10-12 week old mice, were isolated by removing cerebellum, striatum, optic nerves, brain white matter, outer vessels and meninges. After homogenization with a Dounce homogenizer in WBB (Washing Buffer B: HMS, 10 mM Hepes, 0.35 g/L NaHCO3, 0.1% BSA), the homogenate was mixed with 30% dextran in WBB and centrifuged at 3000×g for 25 min at 4° C. The pellet containing the vascular component was then resuspended in WBB and filtered through a 60 μm NY60 Nylon Net Filter (Millipore, Darmstadt, Germany). Following centrifugation at 1000×g for 7 min at room temperature, the pellet was digested in collagenase/dispase supplement with DNase I (Roche Diagnostics, Vilvoorde, Belgium) and TLCK (Tosyl, Lysin chloromethyl ketone, sigma-aldrich) for 33 min at 37° C. in a shaking water bath. The digested capillary suspension was then seeded after multiple washing steps on wells coated with matrigel or glass coated with Corning Cell-Tak (VWR, Leuven, Belgium). For the isolation of intact capillaries the protocol was aborted just before the digestion step.
(§2) A defined area of the cell culture dishes were exposed to X-rays (1Gy or 20 Gy) by using a small animal radiation research platform (SARRP, Xstrahl, 220 kV, 13 mA), making use of a 3×3 mm collimator. Whole dish irradiation was done using a 10×10 cm broad-beam collimator, while localized Irradiation was performed with a 3×3 mm collimator. A Gafchromic RTQA2 film, with a sensitivity of 0.02 Gy, was placed underneath the cell dishes in order to delineate the irradiated zone.
as §1

RBE4 cells [3] = test: γ-H2AX counts after local 3×3 mm X-ray irradiation (irradiated and bystander zones), RBE4 cells; type: cell-based, rat; settings: 1 Gy, 3 h post-irradiation, Cbx 50 μM, Gap26 161 μM, TAT-Gap19 200 μM, Xestospongin C 5 μM
Protocol: as §2, §1

RBE4 cells [4] = test: Cytosolic Ca2+ imaging after medium transfer from irradiated to recipient RBE4 cells; type: cell-based, rat; settings: for AUC of Ca2+ transients in recipient bystander cells: inhibitor added to the irradiated culture 30 min before irradiation, NALC 1 mM; for [Ca2+]i responses in recipient cells: inhibitor added to the recipient cells, PPADS 50 μM
Protocol: Cells were seeded on glass coverslips (18 mm 0) coated with 3.5 μg/cm^2 Corning cell-tak (VWR, Leuven, Belgium) and ester loaded for 45 min with 10 μM Fluo-3-AM in HBSS-HEPES supplemented with 1 mM of probenecid and 0.01% of pluronic F127 at room temperature followed by de-esterification over 15 min. Imaging was performed using an inverted fluorescence microscope equipped with a ×40 oil immersion objective and an EM-CCD camera (QuantEM™ 512SC CCD camera, Photometrics, Tucson, Ariz.). For direct Ca^2+ measurements the loaded cells were irradiated and transferred to the microscopy stage. For medium transfer, the loaded cells were superfused for 1 min with HBSS-Hepes (1 mM), followed by 4 min with HBSS-Hepes conditioned by irradiated cultures. Fluorescence intensity changes in the cells were analyzed with custom-developed FluoFrames software (L. Leybaert, Ghent, Belgium). Ca^2+ changes were quantified as the area under the curve (AUC) of the Ca^2+ traces.

RBE4 cells [5] = test: Irradiation-induced ATP release, RBE4 cells; type: cell-based, rat; settings: broad-beam 1 Gy, 5 min post-irradiation, BAPTA-AM 10 μM, NALC 1 mM, c-PTIO 100 μM
Protocol: ATP was measured using a luciferin-luciferase assay kit (Sigma-Aldrich) in combination with a luminometer plate reader (Victor3 1420 multi label counter; Perkin Elmer, Zaventem, Belgium).
Extracellular ATP measurements were initially carried out at different time-points post-irradiation, the effect of blockers on ATP release was tested at the 5 min post-irradiation time-point (time of maximum ATP release).

RBE4 cells [6] = test: Irradiation-induced propidium iodide dye uptake, RBE4 cells; type: cell-based, rat; settings: 1 Gy, 5 min post-irradiation
Protocol: Cells were grown to near confluency in 4-well plates. Cultures were incubated with 1 mM propidium iodide (PI) and 200 μM 10 kDa dextran-FITC before focal irradiation and dye uptake was measured 5 min post-irradiation by measuring the fluorescence intensity of both dyes following image acquisition with a BD pathway 435 imaging system.

Compound	γ-H2AX counts in the bystander zone (normalized to vehicle) [2]	γ-H2AX counts in the irradiated area (normalized to vehicle) [2]	γ-H2AX counts in the bystander zone (normalized to vehicle) (RBE4 cells [3])	γ-H2AX counts in the irradiated zone (normalized to vehicle) (RBE4 cells [3])	irradiation-induced ATP release (RBE4 cells [5])	also measured
O=C([O-])CN(CC(=O)[O-])c1ccccc1OCCOc1ccccc1N(CC(=O)[O-])CC(=O)[O-].[K+].[K+].[K+].[K+] [BAPTA]	–	–	–	–	–	γ-H2AX scores in the electroporation-loaded bystander zone (normalized to vehicle) (RBE4 cells [1]): significantly decreased γ-H2AX counts; also recorded: strongly reduced the γ-H2AX scores
CC(=O)N[C@@H](CS)C(=O)O [NALC, N-acetyl-L-cystein]	significantly reduced the γ-H2AX scores in both areas; also recorded: almost zero	significantly reduced the γ-H2AX scores in both areas	less clear responses	less clear responses	inhibited irradiation-induced ATP release; also recorded: significantly decreased ATP release	AUC of Ca2+ transients in recipient bystander cells (RBE4 cells [4]): reduced the area under the curve (AUC)
CC1(C)N([O])C(c2ccc(C(=O)O)cc2)=[N+]([O-])C1(C)C [c-PTIO]	significantly reduced the γ-H2AX scores in both areas	significantly reduced the γ-H2AX scores in both areas	less clear responses	less clear responses	strongly reduced irradiation-induced ATP release	γ-H2AX counts in the bystander zone (normalized to vehicle) ([2]; listed as C-PTIO): almost zero; irradiation-induced ATP release (RBE4 cells [5]; listed as C-PTIO): inhibited irradiation-induced ATP release
Gap26: connexin mimetic peptide, amino acids 64-76 from the first extracellular loop of Cx43 (SEQ ID NO: 1) (VCYDKSFPISHVR; Synthetic peptide_Gap26)	–	only had effect in the bystander zone	significantly inhibited	significantly inhibited	inhibited	PI uptake in the bystander area (RBE4 cells [6]): significantly reduced; also recorded: inhibited; PI uptake in the irradiated area (RBE4 cells [6]): significantly reduced; also recorded: inhibited; AUC of Ca2+ transients in recipient bystander cells (RBE4 cells [4]): reduced the area under the curve (AUC); [Ca2+]i responses in recipient cells (RBE4 cells [4]): inhibited the [Ca^2]i responses
C1CCC[C@H]2CCCN3CC[C@@H](CCCCCC[C@@H]4CCCN5CC[C@@H](CC1)O[C@@H]45)O[C@@H]23 [Xestospongin C]	–	–	significantly reduced γ-H2AX counts in the bystander zone	–	–	–
Cc1nc(N=Nc2ccc(S(=O)(=O)O)cc2S(=O)(=O)O)c(COP(=O)(O)O)c(C=O)c1O [PPADS, Pyridoxalphosphate-6-azopehyl-2′,4′-disolfonic acid]	–	–	significantly reduced γ-H2AX scores	–	–	[Ca2+]i responses in recipient cells (RBE4 cells [4]): inhibited the [Ca^2]i responses
BH4-Bcl-2: IP3 receptor blocking peptide (amino acids 6-30 of Bcl-2; MW 3.6 kDa) (RTGYDNREIVMKYIHYKLSQRGYEW; UniProt P10415 6-30, looked up, fragment)	–	–	–	–	–	γ-H2AX scores in the electroporation-loaded bystander zone (normalized to vehicle) (RBE4 cells [1]): strongly reduced the γ-H2AX scores; γ-H2AX scores in the electroporation-loaded bystander zone (normalized to vehicle) (RBE4 cells [1]; listed as BH4-Bcl2): significantly decreased γ-H2AX counts
CC(=O)OCOC(=O)CN(CC(=O)OCOC(C)=O)c1ccccc1OCCOc1ccccc1N(CC(=O)OCOC(C)=O)CC(=O)OCOC(C)=O [BAPTA-AM, 1.2-bis-(2-aminophynoxy)-ethane-N,N,N′,N′,tetraacetic acid acetoxy methyl ester]	significantly reduced the γ-H2AX scores in both areas; also recorded: almost zero	significantly reduced the γ-H2AX scores in both areas	less clear responses	less clear responses	inhibited irradiation-induced ATP release; also recorded: significantly decreased ATP release	–
